Assay results as given in publication PMC6433934, “Preclinical Evaluation of Bispecific Adaptor Molecule Controlled Folate Receptor CAR-T Cell Therapy With Special Focus on Pediatric Malignancies” (Frontiers in Oncology, 2019).

Legend:
HOS-143b = test: Kinetics of specific lysis at varying E/T ratios, 10 nM EC17; assay type: cell-based, human; settings: 10 nM EC17, E2-CAR-T cells, E/T 1:27 to 3:1, 16 and 48 h
Experimental: (§1) For an EC17 dose response study, FR+ cancer cell lines (KB, MDA-MB-231, HOS-FRα, THP1-FRβ, OV90) were co-cultured with EGFRt-sorted E2-CAR-T cells at an effector-to-target (E/T) ratio of 1:1 in the presence of EC17 ranging from 0.1 pM to 100 μM in 10-fold increments. After 24 h of co-culture, supernatants were harvested to determine target cell killing by Promega's CytoTox 96® LDH assay kit and expressed as specific lysis (%) normalized to basal levels in the absence of EC17. To study the kinetics of T cell activation and FR correlation in vitro, co-cultures were carried out in FR+/- cell lines at varying E/T ratios (1:27, 1:9, 1:3, 1:1, 3:1) in the continuous presence of 10 nM EC17. The kinetics of target cell killing (i.e., % specific lysis) were quantified after 16 and 48 h of co-culture and normalized to basal levels in the absence of EC17 at defined E/T ratios. Meanwhile, a portion of the supernatants was taken after 44 h of co-culture for measurement of IFNγ, IL-2, and TNFα. The LEGENDplex™ human Th1 cytokine panel (BioLegend, San Diego, CA) was used to determine CAR-T cell derived cytokines.

OV90 = test: EC17 dose response, co-culture with E2-CAR-T cells, LDH specific lysis; assay type: cell-based; settings: OV90, E/T 1:1, 24 h co-culture
Excerpt: To investigate EC17 CAM action in vitro, pure EGFRt-sorted CD4 and CD8 CAR-T cells were admixed in a 1:1 ratio and matching mock-transduced T cells were included per experimental design. Other than FR+/- isogenic pairs of AML and osteosarcoma cell lines, we added KB, MDA-MB-231 and OV90 to represent different histological tumor types and FR expression levels. All FR+ target cell lines were subjected to a direct ^3H-FA binding assay to quantitate the number of FR molecules bound/cell ([38]). Prior to co-culture experiments, cryopreserved CAR-T cells were allowed to recover for 2–3 days in T cell culture medium. All effector and target cells were pre-washed with FFRPMI to remove any exogenous FA that could compete against EC17. […]
For an EC17 dose response study, FR+ cancer cell lines (KB, MDA-MB-231, HOS-FRα, THP1-FRβ, OV90) were co-cultured with EGFRt-sorted E2-CAR-T cells at an effector-to-target (E/T) ratio of 1:1 in the presence of EC17 ranging from 0.1 pM to 100 μM in 10-fold increments. After 24 h of co-culture, supernatants were harvested to determine target cell killing by Promega's CytoTox 96® LDH assay kit and expressed as specific lysis (%) normalized to basal levels in the absence of EC17. […] The kinetics of target cell killing (i.e., % specific lysis) were quantified after 16 and 48 h of co-culture and normalized to basal levels in the absence of EC17 at defined E/T ratios. […]

FRβ = target: T1, FRβ (Homo sapiens, UniProt P14207); test: 3H-EC17 cell-based radioligand binding, CHO-β cells; settings: ^3H-EC17, CHO-β cells, 2 h at 37°C, from molecules bound per cell
T1 construct: expressed in transfected cells; host or cells: Chinese hamster ovary cells (CHO-β)
T1 sequence (P14207 17-255): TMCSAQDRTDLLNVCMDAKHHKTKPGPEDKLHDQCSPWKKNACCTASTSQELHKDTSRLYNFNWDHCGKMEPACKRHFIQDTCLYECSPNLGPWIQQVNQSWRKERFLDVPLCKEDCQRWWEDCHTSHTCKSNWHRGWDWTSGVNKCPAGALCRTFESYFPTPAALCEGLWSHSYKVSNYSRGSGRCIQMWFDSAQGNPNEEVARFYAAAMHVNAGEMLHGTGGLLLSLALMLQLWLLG
Experimental: (§2) Unless otherwise noted, all FR+ and FR-negative cancer cell lines were, respectively, maintained in RPMI-1640 medium (Gibco BRL) supplemented with 10% heat-inactivated fetal calf serum without (FFRPMI) or with (RPMI) 2.4 μM folic acid (FA). KB (FRα-expressing human cervical carcinoma with HeLa markers) and CHO-β (Chinese hamster ovary cells transfected with human FRβ) were used as the sources of FRα and FRβ for radioligand binding assays, respectively ([18]). MDA-MB-231 represents a FRα+ subclone of human TNBC cell line. For AML studies, the green fluorescent protein (GFP)-expressing isogenic pairs of FRβ-positive (THP1-FRβ) and FR-negative (THP1-FG12) cell lines were kindly provided by Dr. Manohar Ratnam (The University of Toledo, Toledo, OH). […]
(§3) The bispecific affinities of EC17 CAM were assessed using ^3H-EC17 in cell-based radioligand binding assays. […] The whole cell lysates were quantitated for the level of radioactivity and cellular protein content by standard Pierce BCA protein assay. The number of ^3H-EC17 molecules bound per cell was calculated to determine the dissociation constants (Kd) for FRα (KB) and FRβ (CHO-β), respectively. […] Afterwards, the cells were washed 4x with PBS, lysed with 0.1% Triton X-100 plus 0.1 N NaOH and counted in a scintillation counter. […]

E2-CAR-T cells = test: 3H-EC17 radioligand binding to effector cells; design: species or system human; settings: ^3H-EC17, E2-CAR-T cells ~100% EGFRt+, 1:1 CD8/CD4, 1.5 h room temperature, estimated from specific binding curve
Experimental: The bispecific affinities of EC17 CAM were assessed using ^3H-EC17 in cell-based radioligand binding assays. For binding to FR+ targets, KB and CHO-β cells were pre-seeded overnight in 24-well tissue culture plates and incubated with 0.1, 0.5, 1, 5, 10, 20, and 40 nM of ^3H-EC17 in FFRPMI for 2 h at 37°C. Afterwards, the cells were rinsed with phosphate-buffered saline (PBS, pH 7.4) and lysed with 1% sodium dodecyl sulfate. The whole cell lysates were quantitated for the level of radioactivity and cellular protein content by standard Pierce BCA protein assay. The number of ^3H-EC17 molecules bound per cell was calculated to determine the dissociation constants (Kd) for FRα (KB) and FRβ (CHO-β), respectively. […] Afterwards, the cells were washed 4x with PBS, lysed with 0.1% Triton X-100 plus 0.1 N NaOH and counted in a scintillation counter. The specific binding curve was generated by subtracting non-specific binding (^3H-EC17 plus “cold” EC17) from total binding (^3H-EC17) at each concentration of the radioligand.

FRα = target: T2, FRα (Homo sapiens, UniProt P15328); test: 3H-EC17 cell-based radioligand binding, KB cells; settings: ^3H-EC17, KB cells, 2 h at 37°C, from molecules bound per cell
T2 construct: KB (FRα-expressing human cervical carcinoma with HeLa markers); endogenous in cells; host or cells: KB cells (human cervical carcinoma with HeLa markers)
T2 sequence (P15328 25-257): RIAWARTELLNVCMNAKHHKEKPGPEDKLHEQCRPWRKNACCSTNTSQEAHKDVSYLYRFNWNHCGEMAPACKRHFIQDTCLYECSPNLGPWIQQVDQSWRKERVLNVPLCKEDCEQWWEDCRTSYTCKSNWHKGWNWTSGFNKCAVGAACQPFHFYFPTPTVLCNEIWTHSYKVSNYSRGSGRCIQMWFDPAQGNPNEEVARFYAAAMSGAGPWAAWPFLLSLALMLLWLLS
Experimental: as §2, §3

HOS-FRα = test: EC17 dose response, co-culture with E2-CAR-T cells, LDH specific lysis; assay type: cell-based, human
Excerpt: (§4) To investigate EC17 CAM action in vitro, pure EGFRt-sorted CD4 and CD8 CAR-T cells were admixed in a 1:1 ratio and matching mock-transduced T cells were included per experimental design. Other than FR+/- isogenic pairs of AML and osteosarcoma cell lines, we added KB, MDA-MB-231 and OV90 to represent different histological tumor types and FR expression levels. All FR+ target cell lines were subjected to a direct ^3H-FA binding assay to quantitate the number of FR molecules bound/cell ([38]). Prior to co-culture experiments, cryopreserved CAR-T cells were allowed to recover for 2–3 days in T cell culture medium. All effector and target cells were pre-washed with FFRPMI to remove any exogenous FA that could compete against EC17. Short-term co-culture studies of ≤ 3 days were carried out in FFRPMI without adding any exogenous cytokines.
as §1

THP1-FRβ = test: as above; assay type: cell-based, human
Excerpt: as §4, §1

[1] = Homo sapiens, EC17, E/T 1:1, 24 h co-culture, curve fitted up to 100 nM

Structure (SMILES): Nc1nc2ncc(CNc3ccc(C(=O)NC(CCC(=O)NCCNC(=S)Nc4ccc(-c5c6ccc(=O)cc-6oc6cc(O)ccc56)c(C(=O)O)c4)C(=O)O)cc3)nc2c(=O)[nH]1 (stereo not shown) [EC17, FA-(γ)-ethylenediamine-FITC]
- specific lysis of FR-negative cells (HOS-143b): essentially unharmed
- EC50 (OV90; Homo sapiens, OV-90, curve fitted up to 100 nM): 0.418 nM
- Max. lysis (OV90): 15%
- Kd (FRβ): 0.8 nM
- Kd (E2-CAR-T cells): ~142 nM
- Kd (FRα): 1.7 nM
- Max. lysis (HOS-FRα; E/T 1:1, 24 h co-culture): 18%
- EC50 (HOS-FRα; [1]): 0.03 nM
- Max. lysis (THP1-FRβ; E/T 1:1, 24 h co-culture): 27%
- EC50 (THP1-FRβ; [1]): 0.015 nM
